Consider 33 compounds from patent US12065445B2, “CDK2 inhibitors and methods of using the same” (Cedilla Therapeutics, Inc., priority 2021, dated 2024).

This test has as its system Kuramochi cells labeled with mApple-H2B. Briefly: IncuCyte Cell Proliferation Assay. The format is cell-based. As to the method:
IncuCyte® assay was used to measure the effect of disclosed compounds on cell proliferation. Fluorescent microscopy images of cells were taken immediately after compound treatment and 72 hours later. Image analysis software was used to obtain cell counts as a function of compound concentration. Kuramochi cells labeled with mApple-H2B were seeded on 384-well assay-ready plates. Plates were placed in an IncuCyte® (Sartorius) and scanned at 0 and 72 hours. IncuCyte® software was used to count the number of fluorescent nuclei in each well. The fold change in cell count from 0 to 72 hours in wells treated with increasing compounds concentrations (10 pts, ½ log dilution, 20 μM top concentration) was normalized to DMSO control wells. The normalized cell counts were fit with dose response curves and a […] was calculated.

Usually IC50 stands for the concentration at which inhibition is half-maximal. A high value points to a need for much substance. For `C[C@@H](OCC1CCOCC1)[C@H](NC(=O)[C@@H]1CN(C(=O)c2cncs2)CC12CN(C(=O)[C@H]1CC1(C)C)C2)C(=O)N1CCC[C@H](COC(F)(F)F)C1` [I-327], the IC50 (72 h) was 5 to 20 µM.
On the same count and under the same terms, with `Cc1ccc(CNC(=O)[C@@H]2CN(C(=O)c3cnn(Cc4ccncc4)c3)CC23CN(C(=O)[C@H]2CC2(C)C)C3)nn1` [I-418] the figure was over 20 µM.
Still for that read-out and setting: with `CC1(C)C[C@@H]1C(=O)N1CC2(CN(C(=O)c3cncs3)C[C@H]2C(=O)NC(CO)c2cccc(C3CCC(F)(F)CC3)n2)C1` (stereo partly drawn) [I-419] the figure was over 20 µM; with `C[C@@H](OCC1CCCCC1)[C@H](NC(=O)[C@@H]1CN(C(=O)c2cnn(Cc3ccccc3)c2)CC12CN(C(=O)[C@H]1CC1(C)C)C2)C(=O)N1CCC(c2cc[nH]n2)CC1` [I-443], at most 0.5 µM; with `C[C@@H](OCC12CCC(CC1)OC2)[C@H](NC(=O)[C@@H]1CN(C(=O)c2cncs2)CC12CN(C(=O)[C@H]1CC1(C)C)C2)C(=O)N1CCC(OC(F)(F)F)CC1` [I-457], 0.5 to 5 µM.
Where the note is “72 h”, `Cc1ccc(CNC(=O)[C@@H]2CN(C(=O)c3cnn(Cc4ccccn4)c3)CC23CN(C(=O)[C@H]2CC2(C)C)C3)nn1` [I-417] gave a 50% inhibitory concentration (IC50) of over 20 µM.
As for `CNC(=O)[C@@H](NC(=O)[C@@H]1CN(C(=O)c2cncs2)CC12CN(CC1COC1)C2)[C@@H](C)OCC12CCC(CC1)OC2` [I-348], for the setting “72 h”, the half-inhibitory concentration (IC50) is over 20 µM.
Same read-out and setting: with `[2H]C([2H])([2H])NC(=O)C(NC(=O)[C@@H]1CN(C(=O)c2cncs2)CC12CN(C(=O)[C@H]1CC1(C)C)C2)c1cccc(N2CCOCC2)n1` (stereo partly drawn) [I-18] the figure was over 20 µM; with `C[C@@H](OCC12CCC(CC1)OC2)[C@H](NC(=O)[C@@H]1CN(C(=O)c2cncs2)CC12CN(C(=O)[C@H]1CC1(C)C)C2)C(=O)N1CCC(C(F)(F)F)CC1` [I-454, (S)—N-((2S,3R)-3-((2-oxabicyclo[2.2.2]octan-4-yl)methoxy)-1-oxo-1-(4-(trifluoromethyl)piperidin-1-yl)butan-2-yl)-2-((S)-2,2-dimethylcyclopropane-1-carbonyl)-6-(thiazole-5-carbonyl)-2,6-diazaspiro[3.4]octane-8-carboxamide], 0.5 to 5 µM.
The same measure, in the same setting: next, `CNC(=O)C(NC(=O)[C@@H]1CN(C(=O)c2cnn(Cc3ccccc3)c2)CC12CN(C(=O)[C@H]1CC1(C)C)C2)c1ccc(C)nn1` (stereo partly drawn) [I-421]: over 20 µM; `CNC(=O)C(NC(=O)[C@@H]1CN(C(=O)c2cncs2)CC12CN(C(=O)C(C)(C)C1CC1)C2)c1cccc(C2CCCCC2)n1` (stereo partly drawn) [I-410, (8S)—N-(1-(6-cyclohexylpyridin-2-yl)-2-(methylamino)-2-oxoethyl)-2-(2-cyclopropyl-2-methylpropanoyl)-6-(thiazole-5-carbonyl)-2,6-diazaspiro[3.4]octane-8-carboxamide]: 0.5 to 5 µM; `COC[C@H]1CCCN(C(=O)[C@@H](NC(=O)[C@@H]2CN(C(=O)c3cncs3)CC23CN(C(=O)C(C)(C)C2CC2)C3)[C@@H](C)OCC2CCCCC2)C1` [I-389]: 0.5 to 5 µM.
On the same count and under the same terms, with `CNC(=O)[C@@H](NC(=O)[C@@H]1CN(C(=O)c2cncs2)CC12CN(Cc1ccco1)C2)[C@@H](C)OCC12CCC(CC1)OC2` [I-349] the figure was over 20 µM; with `C[C@@H](OCC1(C(F)(F)F)CC1)[C@H](NC(=O)[C@H]1CN(C(=O)c2cncs2)CC12CN(C(=O)[C@H]1CC1(C)C)C2)C(=O)N1CCC(F)(F)CC1` [I-291], over 20 µM.
The compound `COC1CCN(C(=O)[C@@H](NC(=O)[C@@H]2CN(C(=O)c3sc(C)nc3C)CC23CN(C(=O)[C@H]2CC2(C)C)C3)[C@@H](C)OCC23CCC(CC2)OC3)CC1` [I-451] showed an IC50 (72 h) of 5 to 20 µM.
With `C[C@@H](OCC1CCC(F)(F)CC1)[C@H](NC(=O)[C@@H]1CN(C(=O)c2cncs2)CC12CN(C(=O)[C@H]1CC1(C)C)C2)C(=O)N1CCC2(CC1)COC2` [I-335], where the note is “72 h”, the IC50 was in the range of 0.5 to 5 µM.
The compound `COC[C@H]1CCCN(C(=O)[C@@H](NC(=O)[C@@H]2CN(C(=O)c3cncs3)CC23CN(C(=O)C(C)(C)C2CC2)C3)[C@@H](C)OC[C@H]2CC[C@H](O)CC2)C1` [I-431] registered an IC50 (72 h) of over 20 µM.
For `CC1(C)C[C@@H]1C(=O)N1CC2(CN(C(=O)c3cncs3)C[C@H]2C(=O)NC(c2cccc(C3CCCCC3)n2)C2CCCO2)C1` (stereo partly drawn) [I-495], for the setting “72 h”, the IC50 lay within 0.5 to 5 µM.
Still for that read-out and setting: with `COC[C@H]1CCCN(C(=O)[C@@H](NC(=O)[C@@H]2CN(C(=O)c3cncs3)CC23CN(C(=O)[C@H]2CC2(C)C)C3)[C@@H](C)OC[C@H]2CC[C@H](OC(F)(F)F)CC2)C1` [I-435] the figure was 0.5 to 5 µM.
On the same count and under the same terms, with `CNC(=O)[C@@H](NC(=O)[C@@H]1CN(C(=O)c2cncs2)CC12CN(Cc1ccn[nH]1)C2)[C@@H](C)OCC12CCC(CC1)OC2` [I-351] the figure was over 20 µM; with `Cc1ccc(CNC(=O)[C@@H]2CN(C(=O)c3cnc(Cc4ccccc4)s3)CC23CN(C(=O)[C@H]2CC2(C)C)C3)nn1` [I-405], over 20 µM; with `CNC(=O)[C@@H](NC(=O)[C@@H]1CN(C(=O)c2cnn(Cc3ccccc3)c2)CC12CN(C(=O)[C@H]1CC1(C)C)C2)C1(OCC2CCCCC2)CC1` [I-396], 0.5 to 5 µM.
On the same count and under the same terms, next, `C[C@@H](OCC1(C(F)(F)F)CC1)[C@H](NC(=O)[C@H]1CN(C(=O)c2cncs2)CC12CN(C(=O)[C@H]1CC1(C)C)C2)C(=O)N1CCCCC1` [I-292]: over 20 µM.
`CNC(=O)[C@@H](NC(=O)[C@]1(C)CN(C(=O)c2cnn(Cc3ccccc3)c2)CC12CN(C(=O)[C@H]1CC1(C)C)C2)[C@@H](C)OCC1CCCCC1` [I-499A] registered an IC50 (72 h) of over 20 µM.
On the same count and under the same terms, with `C[C@@H](OCc1ccc(Cl)cc1)[C@@H](CO)NC(=O)[C@@H]1CN(C(=O)c2cncs2)CC12CN(C(=O)[C@H]1CC1(C)C)C2` [I-404] the figure was over 20 µM; with `C[C@@H](OCC1CCOCC1)[C@@H](COC1CCC(F)(F)CC1)NC(=O)[C@@H]1CN(C(=O)c2cncs2)CC12CN(C(=O)[C@H]1CC1(C)C)C2` [I-312], 0.5 to 5 µM.
The same measure, in the same setting: next, `Cc1ccc(CNC(=O)[C@@H]2CN(C(=O)c3cnn(Cc4ccccc4)c3)CC23CN(C(=O)C(C)(C)C2CC2)C3)nn1` [I-387, (S)-6-(1-benzyl-1H-pyrazole-4-carbonyl)-2-(2-cyclopropyl-2-methylpropanoyl)-N-((6-methylpyridazin-3-yl)methyl)-2,6-diazaspiro[3.4]octane-8-carboxamide]: over 20 µM.
For the setting “72 hours”, `COC[C@H]1CCCN(C(=O)[C@@H](NC(=O)[C@@H]2CN(C(=O)c3cncs3)CC23CN(C(=O)[C@H]2CC2(C)C)C3)[C@@H](C)O[C@@H](C)C2CCCCC2)C1` [I-467] gave an IC50 of 0.5 to 5 µM.
Turning to `C[C@@H](OCc1ccccc1)[C@H](NC(=O)[C@@H]1CN(C(=O)c2cnn(Cc3ccccc3)c2)CC12CN(C(=O)[C@H]1CC1(C)C)C2)C(=O)N(C)C` [I-409], the IC50 (72 h) lay in the range of 0.5 to 5 µM.
Consider `C[C@@H](OCC1CCC2(CCC2)CC1)[C@H](NC(=O)[C@@H]1CN(C(=O)c2cnn(Cc3ccccc3)c2)CC12CN(C(=O)[C@H]1CC1(C)C)C2)C(=O)N1CCC(c2cnc[nH]2)CC1` [I-444], for which the IC50 (72 h) was at most 0.5 µM.
The compound `C[C@@H](OCC1CCCCC1)[C@H](NC(=O)[C@@H]1CN(C(=O)c2cnn(Cc3ccccc3)c2)CC12CN(C(=O)[C@H]1CC1(C)C)C2)C(=O)NCCC(=O)OC(C)(C)C` [I-478] yielded an IC50 (72 h) of at most 0.5 µM.
Still for that read-out and setting: next, `CNC(=O)C(NC(=O)[C@@H]1CN(C(=O)c2cncs2)CC12CN(C(=O)[C@H]1CC1(C)C)C2)c1cccc(C2CCC(F)(F)CC2)n1` (stereo partly drawn) [I-411]: over 20 µM; `C[C@@H](OCc1ccccc1)[C@H](NC(=O)[C@@H]1CN(C(=O)c2cncs2)CC12CN(C(=O)[C@H]1CC1(C)C)C2)C(=O)N(C)C` [I-416]: 5 to 20 µM.
